Reference: patent publication US7662789B2, “Peptide substance restoring myocardium function” (“Access Bioscience” CJSC, priority 2004, dated 2010)
Like-named read-outs stand apart in the source and are kept apart here. Marks after values point to notes of the source that are not given here. Where a SMILES comes first, the peptide text is derived from it.

Tests used:
[1] = tested on: adrenalin dystrophy in rat myocardium; assay: Adrenalin dystrophy in rat myocardium; assay type: in vivo, rats; conditions: for Diene conjugates content / Malon dialdegide content: 24 hours
Procedure: The experiment was conducted on 30 white mongrel rats with body weight of 180-200 g. The animals were randomly subdivided into three groups, each consisting of 10 animals. Adrenalin dystrophy was induced by administering the fresh adrenalin solution (“Serva”, USA) intraperitoneally in the dose of 2 mg/kg. The control animals received 0.9% NaCl solution. Then the experimental animals were in 1 and 5 hours treated with Ala-Glu-Asp-Arg (SEQ ID NO:1) tetrapeptide in the dose of 0.05 μg per animal in sterile 0.9% NaCl solution. In 4 hours since the beginning of the experiment cardiac muscle bioptates weighing approximately 10 mg were taken for the identification of cardiac dehydrogenases activity and glycogen content in the myocardium. In 24 hours the animals were killed by momentary decapitation. Left ventricle fragments were frozen in […]. In cryostatic slices the activity of succinatedehydrogenase (SDH) was histochemically identified, as well as of NADN-dehydrogenase (NADN-DH), lactatedehydrogenase and glycogen content.

[2] = tested on: organotypic cardiac culture explants; conditions: 3 days incubation
Procedure: Cardiac tissue explants (from the left and right ventricles) of pubertal Wistar rats were cultivated in petri dishes with collagen bottom cover. The nutritious medium was composed of 35% Eagle's medium, 35% Hanx solution, 25% calf fetal serum and 5% of chicken embryonic extract with added glucose, insulin, gentamycin and glutamin. Ala-Glu-Asp-Arg (SEQ ID NO:1) tetrapeptide was added into the cultural medium in fixed concentrations, from 0.01 to 20.0 ng per ml of nutritious medium. After 3 days of incubation at the temperature of 37° C. the increase in the area of explants was identified using phase contrast microscope. Biological activity of the preparation was expressed in the change of square index (SI) of the explants cultivated in the medium containing the peptide, as compared to the control.

white mongrel male mice = assay: Acute toxicity, single intramuscular administration in mice; assay type: in vivo; conditions: single i.m. 1-5 mg/kg; dose 5000 times exceeding the therapeutic one
Procedure: The experiment aimed at the study of acute toxicity was conducted on 66 white mongrel male mice with body weight of 20-23 g. The animals were randomly subdivided into 6 equal groups. The substance was administered once, intramuscularly, in 0.25 ml volume, in the doses of 1 mg/kg, 2 mg/kg, 3 mg/kg, 4 mg/kg and 5 mg/kg in sterile 0.9% NaCl solution. The control animals received 0.9% NaCl solution.

[3] = tested on: rat myocardium, TMTD poisoning; assay: Toxicochemical myocardiopathy by tetramethyl thiuram disulfide (TMTD) poisoning in rats; assay type: in vivo
Procedure: The experiment was conducted on 40 white mongrel rats with body weight of 220-230 g. The animals were randomly subdivided into four groups. The intoxication of animals with tetramethyl thiuram disulfide (TMTD) industrial poison was conducted in the form of 20-day course of 5% oil TMTD solution administration in the dose of 25 mg/kg intragastrically. The tetrapeptide was administered during the last 10 days of the experiment intramuscularly in the dose of 0.05 μg per animals in sterile 0.9% NaCl solution. Upon expiry of the indicated terms both the control and experimental animals were killed by momentary decapitation. Myocardium fragments were fixed by 12% formalin solution. Paraphin slices were stained by hematoxylin-eosine, as well as by Van Gison, Brachet, with sudan III, IV. Intact animals served as the control.

white mongrel male rats = assay: Sub-acute toxicity, 90 days intramuscular in rats; assay type: in vivo; conditions: 90 days i.m. daily; 1 μg/kg, 0.1 mg/kg, 1 mg/kg; 100-1000 times the therapeutic doses
Procedure: The study of sub-acute toxicity was conducted on 60 white mongrel male rats with body weight of 160-240 g. […] Before the substance's administration, as well as on the 30th, 60th and 90th day after the beginning of the course the morphological composition and the properties of the animals' peripheric blood were studied. Upon completion of the experiment the biochemical and coagulological indices of the animals' blood were studied.

[4] = adrenalin + 0.05 μg per animal, liver
[5] = adrenalin + tetrapeptide, 4 hours
[6] = TMTD 25 mg/kg 20 days + tetrapeptide 0.05 μg per animal i.m. last 10 days
[7] = intact animals, 0.05 μg per animal i.m. 10 days

## C[C@H](N)C(=O)N[C@@H](CCC(=O)O)C(=O)N[C@@H](CC(=O)O)C(=O)N[C@@H](CCCNC(=N)N)C(=O)O [Tetrapeptide, L-alanyl-L-glutamyl-L-aspartyl-L-arginine] (H-AEDR-OH)
[1]; 24 hours after induction of dystrophy, control 176±24
  Quantity of diene conjugates in the myocardium: 110 ± 17 nmol/g
[1]; adrenalin 2 mg/kg i.p. + 0.05 μg per animal at 1 and 5 h, heart
  Diene conjugates content: 110 ± 17 nmole/g of tissue
[1]; adrenalin + 0.05 μg per animal, heart
  Malon dialdegide content: 173 ± 25 nmole/g of tissue
[1]; [4]
  Diene conjugates content: 92 ± 11 nmole/g of tissue
  Malon dialdegide content: 270 ± 56 nmole/g of tissue
[1]; [5]
  Enzyme activity in the myocardium tissue: LDH: 0.154 ± 0.011 rel. optical density unit
  Enzyme activity in the myocardium tissue: NADN-DH: 0.344 + 0.019 rel. optical density unit
  Enzyme activity in the myocardium tissue: SDH: 0.284 ± 0.013 rel. optical density unit
[1]; adrenalin + tetrapeptide, myocardium, 4 hours
  Glycogen content: 0.168±0.021 rel. optical density unit
[2]; 0.01 ng/ml
  SI, % with respect to the control: 10%
[2]; 0.05 ng/ml
  SI, % with respect to the control: 20* %
[2]; 0.1 ng/ml
  SI, % with respect to the control: 22* %
[2]; 0.5 ng/ml
  SI, % with respect to the control: 20* %
[2]; 1.0 ng/ml
  SI, % with respect to the control: 15* %
[2]; 2.0 ng/ml
  SI, % with respect to the control: 20* %
[2]; 10.0 ng/ml
  SI, % with respect to the control: 27* %
[2]; 20.0 ng/ml
  SI, % with respect to the control: 8%
White mongrel male mice
  Acute toxicity, toxic reactions: does not cause toxic reactions
[3]; [6]
  Cardiomyocyte nuclei volume: 365.4 ± 13.8** μm^3
  Nuclear-cytoplasmatic ratio: 0.28±0.03
  Parenchyma volume: 0.83 ± 0.02** cm^3/cm^3
  Stroma volume: 0.180±0.02 cm^3/cm^3
  Vessels volume, Vcap/Vcmc: 0.07 ± 0.02 Vcap/Vcmc
[3]; intact animals, versus control
  Increase of the filling of the myocardium: 11%
  Increase of the volume of cardiomyocytes' nuclei: 14%
[3]; [7]
  Cardiomyocyte nuclei volume: 386.2 ± 2.1* μm^3
  Nuclear-cytoplasmatic ratio: 0.40 ± 0.04
  Parenchyma volume: 0.82 ± 0.04 cm^3/cm^3
  Stroma volume: 0.159 ± 0.05 cm^3/cm^3
  Vessels volume, Vcap/Vcmc: 0.08 ± 0.006 Vcap/Vcmc
White mongrel male rats
  Sub-acute toxicity, side effects: absence of side effects
